From patent publication US8975417B2, “Pyrazolopyrrolidine derivatives and their use in the treatment of disease” (Novartis AG, priority 2013, dated 2015) come the findings set out here.

In assay [1] the target is nuclear BRD4-NUT foci in HCC2494 NUT midline carcinoma cells (Homo sapiens (Human), UniProt O60885+Q86Y26). The assay is described as follows: Nut-foci formation assay. Format: cell-based. The conditions noted are these: 24 hours, read-out: HCS Brd4-NUT IC50. The method in brief:
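Read-out is number and intensity of nuclear NUT foci by immunofluorescence imaging, relative to 0.1% DMSO set as 100. Compounds were tested as 3-fold series starting at 10 μM on HCC2494 NUT midline carcinoma cells for 24 h. Four-parameter fitting gave IC50.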

For another assay, the target named is His-Brd3(20-477) (Homo sapiens (Human), UniProt Q15059). The assay is described as follows: TR-FRET in-vitro binding assay for BRD3. The conditions noted are these: biochemical. The method in brief: (§1)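 Assay buffer HEPES pH 7.5/NaCl/Tween20/BSA; protein solution 45 nM, peptide solution 60 nM acetyl-H4 (AcK5,8,12,16). Incubated 30 °C for 35 min; Eu-anti-His6 and SA-APC detection, TR-FRET read.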
Sequence of His-Brd3(20-477) (Q15059 20-477): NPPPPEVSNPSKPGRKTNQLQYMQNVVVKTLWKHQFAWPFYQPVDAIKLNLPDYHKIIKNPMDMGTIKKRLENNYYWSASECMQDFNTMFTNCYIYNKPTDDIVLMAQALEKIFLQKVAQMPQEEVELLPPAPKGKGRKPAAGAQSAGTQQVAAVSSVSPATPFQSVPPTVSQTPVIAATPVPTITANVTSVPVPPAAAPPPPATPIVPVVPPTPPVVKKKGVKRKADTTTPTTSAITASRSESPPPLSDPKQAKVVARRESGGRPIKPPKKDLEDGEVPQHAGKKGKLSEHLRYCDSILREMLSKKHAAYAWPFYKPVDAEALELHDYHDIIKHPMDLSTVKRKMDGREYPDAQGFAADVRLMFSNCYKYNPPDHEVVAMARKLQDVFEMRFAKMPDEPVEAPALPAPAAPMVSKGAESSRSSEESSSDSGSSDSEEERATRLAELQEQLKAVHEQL
For orientation: Time-resolved FRET reads energy transfer from a long-lived donor to a nearby acceptor.

In another assay the target is His-Brd2(60-472) (Homo sapiens (Human), UniProt P25440). Nature of the assay: TR-FRET in-vitro binding assay for BRD2. The conditions noted are these: biochemical. In a few lines: as §1
Sequence of His-Brd2(60-472) (P25440 60-472): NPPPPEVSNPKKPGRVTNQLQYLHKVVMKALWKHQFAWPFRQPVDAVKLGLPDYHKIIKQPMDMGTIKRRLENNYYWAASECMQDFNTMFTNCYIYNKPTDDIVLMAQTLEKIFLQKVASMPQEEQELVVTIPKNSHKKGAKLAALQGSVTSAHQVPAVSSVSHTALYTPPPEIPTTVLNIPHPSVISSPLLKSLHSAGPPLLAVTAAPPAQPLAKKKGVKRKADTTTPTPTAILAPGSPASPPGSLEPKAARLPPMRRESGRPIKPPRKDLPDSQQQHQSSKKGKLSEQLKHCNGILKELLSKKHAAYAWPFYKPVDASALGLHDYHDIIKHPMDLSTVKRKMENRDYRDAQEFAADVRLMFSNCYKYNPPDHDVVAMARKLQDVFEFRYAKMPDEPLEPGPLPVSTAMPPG

`CCc1nn(C2CC2)c2c1C(c1ccc(Cl)cc1)N(c1cc(OC)c3nnc(C)n3c1)C2=O` (stereo not drawn) [Example 84, 4-(4-chlorophenyl)-1-cyclopropyl-3-ethyl-5-(8-methoxy-3-methyl-[1,2,4]triazolo[4,3-a]pyridin-6-yl)-4,5-dihydropyrrolo[3,4-c]pyrazol-6(1H)-one]: the IC50 (usually the concentration that inhibits the measured activity by half) was 92 nM in assay [1], 61.5 nM at His-Brd3(20-477) and 37 nM on His-Brd2(60-472).

Turning to `COc1ncc(-n2nc3c(c2C(C)C)C(c2ccc(Cl)cc2)N(c2ccc4onc(C)c4c2)C3=O)c(OC)n1` (stereo not drawn) [Example 54, 4-(4-chlorophenyl)-2-(2,4-dimethoxypyrimidin-5-yl)-3-isopropyl-5-(3-methylbenzo-[d]isoxazol-5-yl)-4,5-dihydropyrrolo[3,4-c]pyrazol-6(2H)-one], the IC50 was 490 nM in assay [1], 300 nM at His-Brd3(20-477) and 480 nM at His-Brd2(60-472).

Regarding `CCn1nc(C)c2c1C(=O)N(c1cc(C)c3nnc(C)n3c1)C2c1ccc(Cl)cc1` (stereo not drawn) [Example 116, 4-(4-chlorophenyl)-5-(3,8-dimethyl-[1,2,4]triazolo[4,3-a]pyridin-6-yl)-1-ethyl-3-methyl-4,5-dihydropyrrolo[3,4-c]pyrazol-6(1H)-one], the concentration for half-maximal inhibition (IC50) in assay [1] stood at 27 nM; at His-Brd3(20-477), 32 nM; on His-Brd2(60-472) it was 36 nM.

In the case of `COc1ncccc1-n1nc(C)c2c1C(=O)N(c1cc(C)c3nnc(C)n3c1)C2c1ccc(Cl)cc1` (stereo not drawn) [Example 101, 4-(4-chlorophenyl)-5-(3,8-dimethyl-[1,2,4]triazolo[4,3-a]pyridin-6-yl)-1-(2-methoxypyridin-3-yl)-3-methyl-4,5-dihydropyrrolo[3,4-c]pyrazol-6(1H)-one], the IC50 in assay [1] amounted to 66.1 nM; on His-Brd3(20-477), 36 nM; at His-Brd2(60-472) it was 43 nM.

Turning to `Cc1cc(N2C(=O)c3nn(C4COC4)c(C)c3C2c2ccc(Cl)cc2)cn2c(C)nnc12` (stereo not drawn) [Example 136, 4-(4-chlorophenyl)-5-(3,8-dimethyl-[1,2,4]triazolo[4,3-a]pyridin-6-yl)-3-methyl-2-(oxetan-3-yl)-4,5-dihydropyrrolo[3,4-c]pyrazol-6(2H)-one], the half-maximal inhibitory concentration (IC50) came out at 92.8 nM in assay [1], 130 nM at His-Brd3(20-477) and 140 nM on His-Brd2(60-472).

As for `Cc1nn(C2CCC2)c2c1C(c1ccc(Cl)cc1)N(c1cc(C)c(=O)n(C)c1)C2=O` (stereo not drawn) [Example 94, 4-(4-chlorophenyl)-1-cyclobutyl-5-(1,5-dimethyl-6-oxo-1,6-dihydropyridin-3-yl)-3-methyl-4,5-dihydropyrrolo[3,4-c]pyrazol-6(1H)-one], the IC50 in assay [1] turned out to be 21.9 nM; at His-Brd3(20-477) it was 28 nM; at His-Brd2(60-472) it was 25 nM.

As for `CCc1nn(C2CC2)c2c1C(c1ccc(Cl)cc1)N(c1cc(C)c3nnc(C)n3c1)C2=O` (stereo not drawn) [Example 70, 4-(4-chlorophenyl)-1-cyclopropyl-5-(3,8-dimethyl-[1,2,4]triazolo[4,3-a]pyridin-6-yl)-3-ethyl-4,5-dihydropyrrolo[3,4-c]pyrazol-6(1H)-one], the half-maximal inhibitory concentration (IC50) in assay [1] was 11.4 nM; on His-Brd3(20-477), 29 nM; at His-Brd2(60-472), 31 nM.

Consider `COc1ncccc1-n1nc(C)c2c1C(=O)N(c1cc(C)c(=O)n(C)c1)[C@H]2c1ccc(Cl)cc1` [Example 127, (S)-4-(4-chlorophenyl)-5-(1,5-dimethyl-6-oxo-1,6-dihydropyridin-3-yl)-1-(2-methoxypyridin-3-yl)-3-methyl-4,5-dihydropyrrolo[3,4-c]pyrazol-6(1H)-one], for which the values for the IC50 (in assay [1]; at His-Brd3(20-477); at His-Brd2(60-472)) were above 10000 nM, 5100 nM and 4400 nM, respectively.

On to `CCc1nn(C)c2c1C(c1ccc(Cl)cc1)N(c1cc(OC)c3nnc(C)n3c1)C2=O` (stereo not drawn) [Example 105, 4-(4-chlorophenol)-3-ethyl-5-(8-methoxy-3-methyl-[1,2,4]triazolo[4,3-a]pyridin-6-yl)-1-methyl-4,5-dihydropyrrolo[3,4-c]pyrazol-6(1H)-one], for which the IC50 in assay [1] came to 98.6 nM; at His-Brd3(20-477), 150 nM; at His-Brd2(60-472), 130 nM.
